Data: patent US20120141539A1, “METHODS FOR MODULATING TOLL-LIKE RECEPTOR MEDIATED ACTIVATION OF CELLS OF THE INNATE SYSTEM BY MODULATING XBP-1 ACTIVITY” (PRESIDENT AND FELLOWS OF HARVARD COLLEGE, priority 2009, published 2012)

How the values were obtained:
XBP-1 mRNA splicing [1] = experiment: XBP-1 splicing assay in J774 macrophages; type: cell-based, mouse; details: for effect of inhibitor on LPS-induced XBP-1 splicing: LPS stimulation
ATF6 = ATF6 activation (liberation of cleaved fragment) in J774 macrophages; type: cell-based, mouse; details: for activation of ATF6 (cleaved fragment): J774 macrophages stimulated with the substance
Experimental: (§1) Total cell extracts were loaded on SDS-PAGE for separation and transferred to PDVF membranes. For Western blot the following antibodies were used: anti-XBP-1s (Biolegend), anti-phospho PERK, IRE1 and phospho-JNK (Cell Signaling), ATF4, HSP90, IkappaBβ and CHOP (Santa Cruz Biotechnology), anti-ATF6α and anti proIL-1β.
(§2) The ability of TLRs to activate the three branches of the ER stress response was tested. J774 macrophages were stimulated with the TLR4 and TLR2 agonists, LPS and Pam3CSK4, and IRE1α, PERK and ATF6 activation were analyzed. ATF6 activation was tested by monitoring the liberation of its cleaved fragment, and PERK and IRE1α activation by examining their phosphorylation status. […] To further examine the effects of TLR signaling on the classical. ER stress response, cells were stimulated with tunicamycin (TM), a potent pharmacologic ER-stress inducer, in the presence or absence of LPS. […] Therefore, TLRs trigger a biased ER-stress response by activating IRE1 while inhibiting the PERK and ATF6 pathways.

IL-6 = IL-6 production by LPS stimulated macrophages under ER stress; type: cell-based, mouse
PERK = PERK activation (phosphorylation status) in J774 macrophages; type: cell-based, mouse; details: J774 macrophages stimulated with the substance
Experimental: as §1, §2

[2] = system: CHOP, PDI, WSF1 expression; experiment: ER-stress related gene expression in primary macrophages; type: cell-based, mouse
ISG15 = ISG15 production by LPS stimulated macrophages under ER stress; type: cell-based, mouse; details: cells simultaneously ER-stressed with TM
Experimental: (§3) Total RNA was prepared using Trizol (Invitrogen) and cDNA synthesis with High capacity cDNA Reverse transcription kit purchased from Applied Biosystems. Quantitative RT-PCR was performed employing SYBR green fluorescent reagent on a Mx3005P® QPCR System from Strategene. The relative amounts of mRNA were calculated from the values of comparative threshold cycle by using β-actin as control.
Therefore, it was determined whether augmenting this pathway through pharmacologic induction of an ER stress response would enhance the natural response to microbial products. […] Importantly, this finding was confirmed in primary WT and XBP-1Δ macrophages that were left untreated or pre-treated for 12 h with a low dose of TM and then stimulated with LPS for 3 h.

IRE1α = IRE1α activation (phosphorylation status, immunoblot) in J774 macrophages; type: cell-based, mouse; details: J774 macrophages stimulated with the substance
Experimental: as §1, §2

[3] = system: CHOP, BiP, Erdj4 and PDI expression; experiment: ER-stress target gene expression (quantitative RT-PCR) in J774 macrophages; type: cell-based, mouse; details: for induction of the classic ER stress downstream target genes CHOP and BiP: J774 macrophages stimulated with the substance
Experimental: as §3, §2

XBP-1 mRNA splicing [4] = experiment: XBP-1 splicing in primary macrophages; type: cell-based, mouse
IFNβ = details: macrophage cell line; J. Smith et al. 2008; cited from earlier work
[5] = J774 macrophages, co-treatment with TM

c1ccc2c(c1)[I+]c1ccccc1-2 [DPI, diphenyleneiodonium chloride]
effect of inhibitor on LPS-induced XBP-1 splicing (XBP-1 mRNA splicing [1]): abolished

tunicamycin [TM]
activation of ATF6 (cleaved fragment) (ATF6): induced activation of all three branches
amount of IL-6 produced by LPS stimulated macrophages (IL-6; cells simultaneously ER-stressed with TM): dramatically and synergistically increased
IL-6 production in primary WT macrophages (IL-6; pre-treated 12 h with low dose of TM, then LPS 3 h): augmented IL-6 production
activation of PERK (phosphorylation status) (PERK): induced activation of all three branches
induction of PDI and WSF1 in XBP-1Δ macrophages ([2]; XBP-1Δ macrophages versus WT): reduced
amount of ISG15 produced by LPS stimulated macrophages (ISG15): dramatically and synergistically increased
activation of IRE1α (slower migrating phosphorylated species) (IRE1α): induced activation of all three branches

lipopolysaccharide [LPS]
activation of ATF6 (cleaved fragment) (ATF6): neither activation of ATF6 or PERK
effect of co-treatment on proteolytic processing of ATF6α by TM (ATF6; [5]): dramatically repressed
activation of PERK (phosphorylation status) (PERK): neither activation of ATF6 or PERK
expression of the XBP-1 target genes Erdj4 or PDI ([3]; J774 macrophages): did not induce
induction of the classic ER stress downstream target genes CHOP and BiP [3]: nor induction of the classic ER stress downstream target genes, CHOP and BiP, was observed
effect of co-treatment on TM induction of mRNAs including CHOP, PDI and Erdj4 [3, 5]: dramatically repressed
classic ER-stress response as measured by CHOP, BiP, Erdj4 and PDI expression ([3]; J774 macrophages, experiment with or without TM): did not induce a classic ER-stress response
induction of classic ER-stress related genes such as CHOP or PDI ([2]; XBP-1Δ macrophages or WT macrophages): no induction
activation of XBP-1 in TLR4 mutant macrophages (XBP-1 mRNA splicing [4]; macrophages from mice carrying a mutation in the signaling domain of TLR4): did not activate XBP-1
effect on TM-induced XBP-1 splicing (XBP-1 mRNA splicing [4]; macrophages, TM plus LPS): increased
activation of XBP-1 in wild type primary macrophages (XBP-1 mRNA splicing [4]; primary macrophages from wild type (WT) mice): observed
activation of IRE1α (slower migrating phosphorylated species) (IRE1α): Clear activation
splicing of XBP-1 mRNA and production of XBP-1s protein (XBP-1 mRNA splicing [1]; J774 macrophages, time after stimulation): detected as early as 3 hours

Pam3CSK4
activation of ATF6 (cleaved fragment) (ATF6): neither activation of ATF6 or PERK
activation of PERK (phosphorylation status) (PERK): neither activation of ATF6 or PERK
induction of the classic ER stress downstream target genes CHOP and BiP [3]: nor induction of the classic ER stress downstream target genes, CHOP and BiP, was observed
TLR2 dampening of the ER-stress response: dependence on MyD88 ([2]; primary macrophages from MyD88 deficient mice): MyD88 dependent
XBP-1 splicing in TLR2 deficient macrophages (XBP-1 mRNA splicing [4]): did not activate XBP-1 splicing
activation of IRE1α (slower migrating phosphorylated species) (IRE1α): Clear activation

C/C=C(/C)C(=O)O[C@H]1C(C)=C2[C@H]([C@@H]1OC(=O)CCCCCCC)[C@@](C)(OC(C)=O)C[C@H](OC(=O)CCC)[C@@]1(O)[C@H]2OC(=O)[C@@]1(C)O [thapsigargin]
IFNβ production upon stimulation with LPS (IFNβ): increased IFNβ production

COc1cc(C(C)=O)ccc1O [apocynin]
effect of inhibitor on LPS-induced XBP-1 splicing (XBP-1 mRNA splicing [1]): abolished

FSL1
XBP-1 splicing in TLR2 deficient macrophages (XBP-1 mRNA splicing [4]): did not activate XBP-1 splicing
